In patent US11932620B1, “Ethyl 2-[9-(6-flouro-2-hydroxyquinolin-3-yl)-1,8-dioxo-3,4,9,10-tetrahydroacridine-10-yl]-acetate as an antimicrobial compound” (KING FAISAL UNIVERSITY, priority 2023, dated 2024):

Experiments:
Type in all cases: cell-based
Conditions in all cases: after 10, 20, 40 and 60 minutes at all dilutions 1:100, 1:200, 1:400, 1:800
Escherichia coli = test: Antimicrobial screening by agar dilution, Escherichia coli
Experimental: (§1) The antibacterial properties of the synthesized compound ethyl 2-[9-(6-fluoro-2-hydroxyquinolin-3-yl)-1,8-dioxo-3,4,9,10-tetrahydroacridine-10-yl]-acetate were studied by the method of agar dilution. Test solutions of each compound was prepared in concentration of 1% using dimethylformamide as a solvent then they are diluted in physiological solution to obtain the final experimental dilutions 1:100, 1:200, 1:400, 1:800. The effect of these substances are compared with furacillin in a controllable study. The testing microbes used were gram positive bacteria Staphylococcus aureus, gram negative bacteria Pseudomonas aeruginosa and Escherichia coli and Candida albicans fungus. The experiments used for this survey were meat-pentonlu agar (EPA) for cultivation of bacteria and Saburo environment for the fungus. Each experiment used 1 mL of test solution on each plate […]. Two drops of emulsified with microbes feel were added. All experimental samples were taken from the agar after 10, 20, 40, 60 minutes in the environment on the basis of Patrk planted. The bacteria were cultivated at a temperature of 37° C. for 1 day and the mushroom was kept in a thermostat for 2 hours at a temperature of 28° C. Then results were checked. Results of the control (Furacilin) and the antimicrobial activity for the synthesized compounds are listed in are listed in Table 1.

Pseudomonas aeruginosa = test: Antimicrobial screening by agar dilution, Pseudomonas aeruginosa
Experimental: as §1

Staphylococcus aureus = test: Antimicrobial screening by agar dilution, Staphylococcus aureus
Experimental: as §1

Candida albicans = test: Antimicrobial screening by agar dilution, Candida albicans
Experimental: as §1

Measured: inhibition activity (in words)

CCOC(=O)CN1C2=C(C(=O)CCC2)C(c2cc3cc(F)ccc3nc2O)C2=C1CCCC2=O [ethyl 2-[9-(6-fluoro-2-hydroxyquinolin-3-yl)-1,8-dioxo-3,4,9,10-tetrahydroacridine-10-yl]-acetate]
highest inhibition activity: all assays above
